From patent US11702663B2, “Bacteria-based protein delivery” (Universitaet Basel, priority 2015, dated 2023)

Assays:
HeLa cells [1] = assay type: cell-based, human
B16F10 cells = assay type: cell-based, murine
D2A1 cells = assay type: cell-based
4T1 cells = assay type: cell-based, murine
HeLa cells [2] = assay type: cell-based, human; remark: listed apart in the source
HeLa cells [3] = assay type: cell-based, human; remark: listed apart in the source
HeLa cells [4] = test: Western blotting of T3SS translocated proteins from infected cells (digitonin lysis); assay type: cell-based, human; settings: HeLa cells coinfected with strain delivering 2×TEV cleavage site substrate, 2 h, MOI of 100
Excerpt: Western blotting of T3SS translocated proteins from infected cells. HeLa cells in 6-well plates were infected at an MOI of 100 as described above. In case of coinfection with the TEV protease translocating Y. enterocolitica strain, the OD600 of the strains was set and the two bacterial suspensions were mixed in a tube at a ratio of 1:1 (if not otherwise indicated) before addition to the cells. At the end of the infection, the cells were washed twice with ice-cold PBS and collected by scraping in a small volume of ice-cold PBS. After centrifugation (16 000 rcf, 5 min, 4° C.) the pellet was dissolved in 0.002% digitonin supplemented with a protease inhibitor cocktail (Roche complete, Roche). The dissolved pellets were incubated for 5 minutes on ice and then centrifuged (16 000 rcf, 25 min, 4° C.). Supernatants were collected and analyzed for total protein content by […] (Pierce) before SDS PAGE and Western blotting using an anti-Myc (Santa Cruz, 9E11) or anti-Ink4C (Cell Signaling) antibody.

[5] = tested on: B16F10 murine melanoma cells; assay type: cell-based
[6] = tested on: 4T1 murine breast cancer cells; assay type: cell-based
p38 = assay type: cell-based, human
Akt = assay type: cell-based, human
HeLa cells [7] = assay type: cell-based, human; remark: listed apart in the source
zebrafish embryos = settings: in vivo

With “BH3 domain of murine BAX: YopE1-138 fusion to BH3 domain of murine BAX, codon optimized for Y. enterocolitica” as the molecule, how does the cell death (HeLa cells [1]) read?
The cell death was “induce massive cell death”.

What about the cell death (B16F10 cells) of the same molecule?
Its cell death is “induce massive cell death”.

And the cell death (D2A1 cells)?
The cell death was “induce massive cell death”.

What about the cell death (4T1 cells) of the same molecule?
The cell death was “induce massive cell death”.

What does the source list for “BH3 domain of murine BID: YopE1-138 fusion to BH3 domain of murine tBID, codon optimized for Y. enterocolitica”?
cell death (HeLa cells [1]): induce massive cell death; cell death (B16F10 cells): induce massive cell death; cell death (D2A1 cells): induce massive cell death; cell death (4T1 cells): induce massive cell death

How did the cAMP production (HeLa cells [2]) turn out when “BepA: YopE1-138 fusion to full length type IV effector BepA from B. henselae” was run?
Its cAMP production is “triggered cAMP production in expected amounts”.

For “BepAE305-end: YopE1-138 fusion to BepA E305-end containing the C-terminal Bid domain”, which cAMP production (HeLa cells [2]) is on record?
The cAMP production was “triggered cAMP production in expected amounts”.

For “BepG: YopE1-138 fusion to the Bid domain of the B. henselae effector BepG”, which cAMP production (HeLa cells [2]) is on record?
The cAMP production was “failed to induce cAMP”.

How did the “apoptosis induction (CASP3 p17 subunit)” value (HeLa cells [3]) turn out when “Murine tBID fused to full length SteA: full length SteA fused to murine tBID, delivered by S. enterica” was run?
The value was “lead to apoptosis induction”.

How did the “activity of T3SS delivered TEV protease” value (HeLa cells [4]) turn out when “TEV protease: TEV protease (S219V variant) fused to YopE1-138” was run?
The value was “functional”.

How did the “IC50 (MOI), pBad-MycHisA based delivery compared with pYV encoded” value [5] turn out when “YopE1-138-(tBID BH3)2: murine BH3 domain of tBID fused to itself, fused to YopE1-138” was run?
The value was “slightly decreased IC50 value”.

And the “capacity of inducing apoptosis, IC50 (MOI needed to kill 50% of cells)” value [5]?
The value was “decreased upon delivery of tandem repeats of tBID BH3 domain as compared to a single tBID BH3 domain”.

What about the “cell death (nuclear count)” value [5] of the same molecule?
Its value is “more active than YopE1-138-(tBID-BH3) at lower MOI”.

What about the “efficiency of cell killing, IC50 (MOI needed to kill 50% of cells)” value [5] of the same molecule?
The value was “decreased upon delivery of tandem repeats of tBID BH3 domain as compared to a single tBID BH3 domain”.

What about the “IC50 (MOI), pBad-MycHisA based delivery compared with pYV encoded” value [6] of the same molecule?
The value was “slightly decreased IC50 value”.

And the “capacity of inducing apoptosis, IC50 (MOI needed to kill 50% of cells)” value [6]?
Its value is “decreased upon delivery of tandem repeats of tBID BH3 domain as compared to a single tBID BH3 domain”.

What about the “cell death (nuclear count)” value [6] of the same molecule?
The value was “more active than YopE1-138-(tBID-BH3) at lower MOI”.

And the “efficiency of cell killing, IC50 (MOI needed to kill 50% of cells)” value [6]?
Its value is “decreased upon delivery of tandem repeats of tBID BH3 domain as compared to a single tBID BH3 domain”.

Which results are given for “YopE1-138-(tBID-BH3)-(BAX-BH3): murine BH3 domain of tBID fused to murine BH3 domain of BAX, fused to YopE1-138”?
cell death (nuclear count) [5]: more active than YopE1-138-(tBID-BH3) at lower MOI; cell death (nuclear count) [6]: more active than YopE1-138-(tBID-BH3) at lower MOI

Which “cell death (nuclear count)” value [5] does the source give for “YopE1-138-(tBID-BH3): BH3 domain of murine tBID fused to YopE1-138, control for repeated domain constructs” here?
Its value is “triggered cell death”.

What about the “cell death (nuclear count)” value [6] of the same molecule?
Its value is “triggered cell death”.

How did the “apoptosis induction / cell death” value (HeLa cells [1]) turn out when “YopE1-138-BID: YopE1-138 fusion to human BH3 interacting-domain death agonist (BID)” was run?
The value was “failed to induce apoptosis”.

Which “TNFα-induced p38 phosphorylation” value (p38) does the source give for “YopE1-138-OspF: YopE1-138 fusion to S. flexneri type III effector OspF, a phosphothreonine lyase” here?
Its value is “TNFα-induced phosphorylation was abolished”.

Which “phosphorylation of Akt at T308 and S473” value (Akt) does the source give for “YopE1-138-SopB: YopE1-138 fusion to Salmonella type III effector SopB” here?
Its value is “induced a strong phosphorylation of Akt at T308 and S473”.

Which F-actin rearrangements (HeLa cells [7]) does the source give for “YopE1-138-SopE-Myc: YopE1-138 fusion to SopE with MycHis tag” here?
Its F-actin rearrangements is “triggered massive F-actin rearrangements”.

Which “changes in the actin network” value (HeLa cells [7]) does the source give for “YopE1-138-SopE: YopE1-138 fusion to SopE from Salmonella enterica, a guanine nucleotide exchange factor” here?
The value was “induced dramatic changes in the actin network”.

What about the “first changes in the actin cytoskeleton observed” value (HeLa cells [7]) of the same molecule?
Its value is 2 min p.i.

And the “phosphorylation of Akt at T308 and S473” value (Akt)?
Its value is “had no effect on Akt”.

How did the “effect of co-infection on F-actin rearrangements triggered by YopE1-138-SopE-Myc” value (HeLa cells [7]) turn out when “YopE1-138-SptP: YopE1-138 fusion to SptP, a GTPase activating protein (GAP) for Cdc42” was run?
Its value is “abolished this effect in a dose dependent manner”.

For “YopE1-138-tBID: YopE1-138 fusion to human truncated BID (tBID)”, which “apoptosis induction / cell death” value (HeLa cells [1]) is on record?
The value was “triggered cell death in larger extend than the well-characterized apoptosis inducer staurosporin”.

And the “apoptotic response (confocal images, mitochondrial integrity)” value (HeLa cells [1])?
The value was “induces a rapid apoptotic response”.

And the “production of CASP3 p17 subunit” value (HeLa cells [1])?
The value was “lead to the production of CASP3 p17 subunit, even in larger amounts as with staurosporin”.

What does the source list for “YopE1-138-z-BIM: YopE1-138 fusion to zebrafish apoptosis inducer z-BIM”?
apoptosis induction / cell death (HeLa cells [1]): showed clear signs of cell death; apoptosis in nearby cells, automated image analysis on maximum intensity z projections (zebrafish embryos): induce apoptosis in nearby cells by far more than control bacteria do; cleaved CASP3 (p17) staining in regions surrounding the bacteria (zebrafish embryos): strong increase in presence of cleaved CASP3

What does the source list for “murine tBID: murine tBID codon optimized for Y. enterocolitica fused to YopE1-138”?
cell death (HeLa cells [1]): triggered cell death; cell death (B16F10 cells): triggered cell death; cell death (D2A1 cells): triggered cell death; cell death (4T1 cells): triggered cell death

B1: SteA1-20 fused murine tBID: 20 N-terminal amino acids of SteA fused to murine tBID, delivered by S. enterica (protein)
chain: MPYTSVSTYARALSGNKLPHGTGSQASRSFNQGRIEPDSESQEEIIHNIARHLAQIGDEMDHNIQPTLVRQLAAQFMNGSLSEEDKRNCLAKALDEVKTAFPRDMENDKAMLIMTMLLAKKVASHAPSLLRDVFHTTVNFINQNLFSYVRNLVRNEMD
modifications: SteA1-20 - S. enterica codon optimized murine t-BID
notes: 20 N-terminal amino acids of SteA fused to murine tBID, delivered by S. enterica
How did the “apoptosis induction (CASP3 p17 subunit)” value (HeLa cells [3]) turn out when B1 was run?
The value was “failed to induce apoptosis”.
